The record followed here is patent US11643421B2, “Process for the preparation of tricyclic PI3K inhibitor compounds and methods for using the same for the treatment of cancer” (priority 2015, dated 2023).

One data set concerns high-grade gliomas. As to the kind of experiment: Phase I study, FDG-PET tumor response. As to conditions: 27 patients who underwent FDG-PET imaging. It counts as in vivo, human.
Another data set addresses EphA4 (Homo sapiens, UniProt P54764). As to the kind of experiment: biochemical. The conditions noted are these: read-out: % inhib.
The subject of data set [1] is pAKT. Briefly: PI3K pathway modulation in GS2 tumors, western blot. As to conditions: 15 mg/kg PO daily 4 weeks. On the technique in general: A western blot detects proteins with antibodies after separation by electrophoresis.
Method: Each brain was dissected to separate the tumor from the healthy tissues. […] The GS2 tumors isolated from the brains were processed and the PI3K pathway markers pAkt, pS6 and p4EBP1 were measured as described previously.
The target in another data set is CamKIV (Homo sapiens, UniProt Q16566). Briefly: biochemical. As to conditions: read-out: % inhib.
For a further data set, the system named is GS2 intracranial tumors. Briefly: Efficacy in GS2 intracranial model. Format: in vivo, mice. The conditions noted are these: 15 mg/kg PO daily for 4 weeks, MRI, p<0.01. An excerpt: These U87 and GS2 models are PTEN-deficient, with the GS2 cell line presenting a copy number loss at the PTEN locus (Gunther H S, et al.) with no detectable PTEN protein by western blot (Carlson […], Schroeder […]., “Establishment, maintenance and in vitro and in vivo applications of primary human glioblastoma multiforme (GBM) xenograft models for translational biology studies and drug discovery”, Curr Protoc Pharmacol. 2011; Chapter 14: Unit 14 16). The identity of the two cell lines was confirmed by STR profiling (DNA Diagnostics Center) using cells within 5 passages of those utilized for in vivo studies. […] The differences between treatment groups were evaluated using Student's t test in Prism (Prism 5, GraphPad). […] Body temperature was continuously monitored using a rectal probe and was maintained at 37° C. by a heated-air flow system regulated by in-house LabVIEW controller software. A T2-weighted fast spin echo, multi-slice (FSEMS) sequence was used to detect lesions by MRI. 12-20 axial 0.5-0.8 mm-thick slices were acquired with a 20×20 mm field of view (FOV), and 128×128 matrix, zero-filled to 256×256 mages. TR=3500-4000 ms, TE=9-10 ms, ETL=8, k-zero=4, NEX=8. Tumor volumes were calculated from the T2-weighted FSEMS images using an intensity threshold based region growing tool in MRVision software. […]

In a further data set the target is Flt1 (Homo sapiens, UniProt P17948). Briefly: biochemical. As to conditions: read-out: % inhib.
The nature of data set [2]: MALDI imaging of brain distribution, GS2 orthotopic model. Format: in vivo, female nude mice. As to conditions: 15 mg/kg PO, 1 hour post dose. Here is the method:
Mice were euthanized at 1 and 6 hours post-dose via exsanguination by perfusion under anesthesia. Brains were excised, flash frozen in liquid N2 and stored in a −80° C. freezer until analyzed. Fresh frozen tissue sections were obtained on a cryomicrotome (Leica CM3050S, Buffalo Grove, Ill.) at 12 μm thickness and thaw-mounted onto indium tin oxide coated glass slides (Bruker Daltonics, Billerica, Mass.). Tissue sections were an analyzed by imaging MALDI MS, providing signal intensities (and not absolute quantitation), followed by cresyl violet staining for histological interrogation.
For MALDI MAS analysis, a 40 mg/mL solution of 2,5-dihydroxybenzoic acid (Sigma-Aldrich, St. Louis, Mo.) was prepared in methanol:water (70:30 v/v). […] Matrix solution was homogenously spray-coated onto the tissue using a HTX TM-Sprayer (HTX technologies. Chapel Hill, N.C.). Matrix-coated tissue sections were transferred to the MALDI mass spectrometer (SolariX 7T FT-ICR, Bruker Daltonics, Bremen, Germany) for imaging analysis. […] Laser intensity and number of shots were optimized for sensitivity of the parent drug (1200 shots) with ion detection collected over the mass range of m/z 150-3000.
Following completion of the imaging experiments, matrix coaling was removed by rinsing the glass slide in 100% methanol for 30 seconds or until the entire matrix was visibly removed. […]

Data set [3] deals with pAKT. As to the kind of experiment: pAKT/tAKT in normal brain tissue. Format: in vivo, female CD-1 mice. As for the experimental part:
The effect of compound IIIat on pAKT in normal brain tissue, expressed as the ratio of phosphorylated AKT (pAKT) to total AKT (tAKT) was evaluated. […] In the evaluation, female CD-1 mice were administered a single PO dose of the indicated compound. Brains and plasma were collected at the indicated time post-dose, from 3 animals at each time point. Individual brains were split in half for PD analysis and compound concentration measurement. The samples were stored at −70° C. and analyzed for total concentration. For PD analysis, cell extraction buffer (Invitrogen, Camarillo, Calif.) containing 10 mM Tris pH 7.4, 100 mM NaCl, 1 mM EDTA, 1 mM EGTA, 1 mM NaF, 20 mM Na4P2O7, 2 mM Na3VO4, 1% Triton X-100, 10% glycerol, 0.1% SDS, and 0.5% deoxycholate was supplemented with phosphatase, protease inhibitors (Sigma, St. Louis, Mo.) and 1 mM PMSF and added to frozen brain biopsies. […] Protein concentration was determined using BCA protein assay (Pierce, Rockford, Ill.). […] Licor Odyssey Infrared detection system (Licor, Lincoln, Nebr.) was used to assess and quantify protein expression. PI3K pathway markers were evaluated by immunoblotting using antibodies against pAkt^ser473 and total Akt (Invitrogen, Camarillo, Calif. and Cell Signaling, Danvers, Mass.). Inhibition of pAkt (%) was calculated by comparing pAkt signal with that measured in untreated mice.

Flt1, sequence (P17948 27-1338): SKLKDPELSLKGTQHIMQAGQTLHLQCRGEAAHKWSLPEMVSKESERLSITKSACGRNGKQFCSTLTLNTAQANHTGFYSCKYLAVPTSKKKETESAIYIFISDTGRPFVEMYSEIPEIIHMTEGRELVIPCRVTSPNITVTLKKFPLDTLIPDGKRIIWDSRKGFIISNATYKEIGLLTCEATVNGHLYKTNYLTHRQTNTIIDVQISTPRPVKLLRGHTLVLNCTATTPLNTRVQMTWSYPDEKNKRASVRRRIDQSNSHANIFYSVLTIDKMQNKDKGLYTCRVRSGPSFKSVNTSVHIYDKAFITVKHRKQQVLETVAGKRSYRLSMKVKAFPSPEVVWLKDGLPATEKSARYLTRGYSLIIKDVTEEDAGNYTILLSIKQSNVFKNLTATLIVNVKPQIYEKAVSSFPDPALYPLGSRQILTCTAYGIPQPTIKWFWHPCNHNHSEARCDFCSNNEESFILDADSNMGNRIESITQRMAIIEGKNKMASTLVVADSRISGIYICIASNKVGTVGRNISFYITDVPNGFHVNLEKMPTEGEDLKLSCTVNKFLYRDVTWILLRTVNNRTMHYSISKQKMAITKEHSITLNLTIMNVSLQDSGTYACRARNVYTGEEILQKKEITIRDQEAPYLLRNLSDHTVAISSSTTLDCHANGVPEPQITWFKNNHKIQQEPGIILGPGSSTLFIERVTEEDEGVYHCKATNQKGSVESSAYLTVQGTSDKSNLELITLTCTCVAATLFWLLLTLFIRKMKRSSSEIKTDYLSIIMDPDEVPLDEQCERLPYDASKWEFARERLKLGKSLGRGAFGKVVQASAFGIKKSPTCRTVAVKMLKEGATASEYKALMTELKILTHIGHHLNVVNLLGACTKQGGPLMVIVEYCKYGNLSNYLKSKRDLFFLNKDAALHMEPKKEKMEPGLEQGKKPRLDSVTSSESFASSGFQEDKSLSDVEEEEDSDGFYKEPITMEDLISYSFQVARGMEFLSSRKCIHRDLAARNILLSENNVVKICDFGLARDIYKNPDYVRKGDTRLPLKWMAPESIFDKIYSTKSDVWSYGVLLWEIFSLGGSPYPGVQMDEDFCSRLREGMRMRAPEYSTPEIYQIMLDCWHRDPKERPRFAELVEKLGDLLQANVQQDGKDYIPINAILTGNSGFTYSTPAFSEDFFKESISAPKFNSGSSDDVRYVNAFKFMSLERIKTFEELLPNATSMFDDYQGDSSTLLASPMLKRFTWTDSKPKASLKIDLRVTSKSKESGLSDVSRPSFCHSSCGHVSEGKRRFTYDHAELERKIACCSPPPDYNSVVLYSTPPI
EphA4, sequence (P54764 20-986, species assumed): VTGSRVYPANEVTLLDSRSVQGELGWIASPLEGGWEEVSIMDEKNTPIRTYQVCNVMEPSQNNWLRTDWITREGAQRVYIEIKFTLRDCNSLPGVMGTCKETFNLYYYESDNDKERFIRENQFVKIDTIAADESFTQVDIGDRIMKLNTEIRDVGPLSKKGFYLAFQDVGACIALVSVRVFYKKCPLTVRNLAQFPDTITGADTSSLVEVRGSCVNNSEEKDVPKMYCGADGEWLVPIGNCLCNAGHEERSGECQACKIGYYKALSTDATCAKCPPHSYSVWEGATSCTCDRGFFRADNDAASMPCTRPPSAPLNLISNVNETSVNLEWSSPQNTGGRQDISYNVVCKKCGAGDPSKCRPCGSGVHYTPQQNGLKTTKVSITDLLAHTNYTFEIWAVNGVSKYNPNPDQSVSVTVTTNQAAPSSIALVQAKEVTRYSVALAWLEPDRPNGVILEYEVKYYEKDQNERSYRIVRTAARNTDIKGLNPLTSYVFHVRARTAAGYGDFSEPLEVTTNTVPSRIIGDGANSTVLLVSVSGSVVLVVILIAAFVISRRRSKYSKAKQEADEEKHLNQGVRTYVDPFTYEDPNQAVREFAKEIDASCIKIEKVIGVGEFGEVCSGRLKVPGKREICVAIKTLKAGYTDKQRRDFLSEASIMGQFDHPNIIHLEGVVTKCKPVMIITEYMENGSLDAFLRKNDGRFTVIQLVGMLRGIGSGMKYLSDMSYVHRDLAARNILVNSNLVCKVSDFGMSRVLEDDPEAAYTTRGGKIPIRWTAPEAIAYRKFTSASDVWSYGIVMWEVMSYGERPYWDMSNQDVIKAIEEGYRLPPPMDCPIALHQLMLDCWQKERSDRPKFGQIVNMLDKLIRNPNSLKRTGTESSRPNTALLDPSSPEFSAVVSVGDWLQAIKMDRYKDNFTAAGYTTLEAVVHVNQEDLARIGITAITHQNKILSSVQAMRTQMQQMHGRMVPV
CamKIV, sequence (Q16566 whole entry): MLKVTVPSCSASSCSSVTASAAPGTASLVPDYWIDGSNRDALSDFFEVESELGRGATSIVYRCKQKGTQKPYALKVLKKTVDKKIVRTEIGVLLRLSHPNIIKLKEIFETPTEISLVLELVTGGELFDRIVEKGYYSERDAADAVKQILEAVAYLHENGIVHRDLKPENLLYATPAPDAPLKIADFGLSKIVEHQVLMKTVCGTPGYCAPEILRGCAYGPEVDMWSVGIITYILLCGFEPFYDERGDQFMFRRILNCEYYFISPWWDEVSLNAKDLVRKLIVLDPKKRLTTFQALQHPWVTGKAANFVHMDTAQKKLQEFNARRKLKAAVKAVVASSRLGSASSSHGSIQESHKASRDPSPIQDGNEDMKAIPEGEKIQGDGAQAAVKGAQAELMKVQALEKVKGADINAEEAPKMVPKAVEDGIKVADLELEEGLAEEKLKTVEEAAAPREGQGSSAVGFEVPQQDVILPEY
Method for high-grade gliomas: Tumor response was determined by either an assessment of FDG-PET or by Response Assessment in Neuro-Oncology (RANO).
The outcome measure for this objective was based on the maximum standard uptake value (SUVmax) of up to five lesions. The tumor regions of interest (ROIs) were identified for each patient on pretreatment PET imaging and corresponded to a subset of the target lesions used for analysis of the patient's pretreatment tumor assessment scans. […] Specifically, the SUVmax of each ROI on the on-treatment scans was compared with its SUVmax on the corresponding pretreatment scan and the percent change was determined. In the event of more than one ROI, the overall percent change in SUVmax was the arithmetic mean of the percent changes in SUVmax for each of the ROIs (mSUVmax). PET response is defined as follows. Progressive disease (PET-PD): percent increase of >20% in mSUVmax or the development of a new lesion with an SUVmax above background and not explained by another cause (e.g., infection). Stable disease (PET-SD): percent increase of ≤20% in mSUVmax or a percent decrease of ≤20% in mSUVmax. Partial response (PET-PR): percent decrease of >20% in mSUVmax. […]
Reduction in ^18F-FDG uptake measured by PET is indicative of reduced glucose metabolism activity, a likely PD response of PI3K pathway inhibition.

As to `CC1(C)OCCn2c1nc1c(N3CCOCC3)nc(-c3cnc(N)nc3)nc12` [GDC-0084, 5-(6,6-dimethyl-4-morpholino-8,9-dihydro-6H-[1,4]oxazino[3,4-e]purin-2-yl)pyrimidin-2-amine], the “patients with metabolic partial response on FDG-PET” value in the data set with high-grade gliomas is recorded as “five”. In addition, the “patients with metabolic partial response on FDG-PET, percent” value with high-grade gliomas came to 18.5%. For the same compound, the inhibition at 1 µM at EphA4 came to 3%; on CamKIV, 0.2%; at Flt1, 0.6%. The “reduction of pAkt levels in GS2 tumors” value came to 90% in the data set on pAKT [1] (2 hours after final administration) and 70% with pAKT [1] (8 hours after final administration). Also, the “GS2 tumors smaller than control group” value with GS2 intracranial tumors is “≈ 40%”. In addition, the “mean pixel intensity (MALDI imaging)” value in data set [2] (GS2 tumors) is given as 0.34; in data set [2] (normal brain of GS2 tumor-bearing mice), 0.55. For the same compound, the “pAKT in normal mouse brain tissue” value was “inhibited” with pAKT [3] (3 mg/kg or 10 mg/kg orally, 1 h post-dose) and “no longer resulted in inhibition of pAKT” with pAKT [3] (3 mg/kg orally, 4 hours post-dose).
